# Data reported in US7691572B2, “Method and kit for detecting resistance to antiviral drugs” (priority 1998, dated 2010).
# Where two headings read alike, the source gives them in different places.
# Key:
# HIV-1 RT [1] = assay: Amp-RT assay, AZT-TP and other NRTI-TPs, reference viruses; assay type: biochemical; details: for % inhibition (SEM) / inhibition of RT activity / inhibition of activity: 1 μM AZT-TP; for inhibition of RT activity: ~1.882×10^−7 to ~1.882×10^−5 units of RT activity per ml
# HIV-1 RT [2] = assay type: biochemical; details: for inhibition of RT activity / RT activity inhibition / Phenotype / % inhibition: 1 μM AZT-TP
# Excerpt: Four groups of archived HIV-1 specimens with known genotypes were selected for assay validation. These included WT, MNR, MNR carrying unrelated resistance mutations, and non-MNR specimens carrying classical AZT resistance mutations (Schmit et al., “Multiple drug resistance to nucleoside analogues and nonnucleoside reverse transcriptase inhibitors in an efficiently replicating human immunodeficiency virus type 1 patient strain,” J. Infect. Dis. 174: 962-968 (1996); Winters et al., “A 6-base pair insert in the reverse transcriptase gene of human immunodeficiency virus type 1 confers resistance to multiple nucleoside inhibitors,” J. Clin. Invest. 102: 1769-1775 (1998); Adje et al., “High prevalence of genotypic and phenotypic HIV-1 drug-resistant strains among patients receiving antiretroviral therapy in Abidjan, Cote d'Ivoire,” J. Acquired Immune Deficiency Syndromes 26: 501-506 (2001); Weinstock et al., “Prevalence of mutations associated with reduced antiretroviral drug susceptibility among human immunodeficiency virus type 1 seroconverters in the United States, 1993-1998,” J. Infect. Dis. 182: 330-333 (2000)). Forty-four samples were selected which comprised 7 viral stocks and 37 plasma samples obtained from 34 HIV-1-infected persons.
# [3] = MNR HIV-1SUM12 (F77L, F116Y, Q151M)
# [4] = MNR HIV-1SUM13 (A62V, V75I, F77L, F116Y, Q151M)
# [5] = specimen no. 40 (T215Y and T69S-EA insertions)
# [6] = classical AZT-resistant HIV-1 R598 (D67N, V106A, L210W, L214F, T215Y)
# [7] = classical AZT-resistant HIV-1RTMC/MT2 (D67N, K70R, T215F, K219Q)
smiles,measurement,setting,value
"Nc1ccn([C@@H]2CS[C@H](COP(=O)(O)OP(=O)(O)OP(=O)(O)O)O2)c(=O)n1 [3TC-TP, 3TC-5′-triphosphate]",IC50,HIV-1 RT [1]; MNR HIV-1SUM8 (Q151M),900 nM
same,fold resistance (IC50) as compared to the mean IC values of WT HIV-1,HIV-1 RT [1]; MNR HIV-1SUM8 (Q151M),(1.8) fold
same,IC50,HIV-1 RT [1]; [3],2700 nM
same,fold resistance (IC50) as compared to the mean IC values of WT HIV-1,HIV-1 RT [1]; [3],(5.4) fold
same,IC50,HIV-1 RT [1]; [4],3300 nM
same,fold resistance (IC50) as compared to the mean IC values of WT HIV-1,HIV-1 RT [1]; [4],(6.6) fold
same,IC50,HIV-1 RT [1]; WT HIV-1SUM9,400 nM
same,IC50,HIV-1 RT [1]; WT HIV-1xxBRUpitt,600 nM
"Cc1cn([C@H]2C[C@H](N=[N+]=[N-])[C@@H](COP(=O)(O)OP(=O)(O)OP(=O)(O)O)O2)c(=O)[nH]c1=O [AZT-TP, AZT-triphosphate]",inhibition of RT activity,HIV-1 RT [2]; 9 specimens containing classical AZT-resistant mutations,87%
same,RT activity inhibition,HIV-1 RT [2]; 23 specimens with MNR genotypes,0-62%
same,RT activity inhibition,HIV-1 RT [2]; HIV-1 RTs that had more MNR-related mutations,0-16%
same,inhibition of RT activity,HIV-1 RT [2]; all 12 specimens with WT genotype,93%
same,Phenotype,HIV-1 RT [2]; specimen 12,S
same,% inhibition,"HIV-1 RT [2]; specimen 12, WT",100%
same,Phenotype,HIV-1 RT [2]; specimen 13,R
same,% inhibition,"HIV-1 RT [2]; specimen 13, S68G, Q151M",40%
same,Phenotype,HIV-1 RT [2]; specimen 14,R
same,% inhibition,"HIV-1 RT [2]; specimen 14, A62A/V, S68G, V75I, F77L, F116Y, Q151M",6%
same,Phenotype,HIV-1 RT [2]; specimen 15,R
same,% inhibition,"HIV-1 RT [2]; specimen 15, S68G, V75I, F77L, K103N, F116Y, Q151M, M184V",0%
same,Phenotype,HIV-1 RT [2]; specimen 16,R
same,% inhibition,"HIV-1 RT [2]; specimen 16, Q151Q/M",38%
same,% inhibition,"HIV-1 RT [2]; specimen 17, Q151M",23%
same,% inhibition,"HIV-1 RT [2]; specimen 18, Q151M",57%
same,Phenotype,HIV-1 RT [2]; specimen 26,R
same,% inhibition,"HIV-1 RT [2]; specimen 26, A62V, V75T, Q151M, M184I/M",11%
same,% inhibition,"HIV-1 RT [2]; specimen 27, V75I, F77L, F116Y, Q151M",0%
same,% inhibition,"HIV-1 RT [2]; specimen 28, V75I, F77L, F116Y, Q151M",8%
same,Phenotype,HIV-1 RT [2]; specimen 29,R
same,% inhibition,"HIV-1 RT [2]; specimen 29, A62V, V75I, F77L, F116Y, Q151M, M184V",0%
same,Phenotype,HIV-1 RT [2]; specimen 30,R
same,% inhibition,"HIV-1 RT [2]; specimen 30, K65R, K70R, V75I, F77L, F116Y, Q151M",13%
same,Phenotype,HIV-1 RT [2]; specimen 31,R
same,% inhibition,"HIV-1 RT [2]; specimen 31, D67N, Q151M, M184V",17%
same,Phenotype,HIV-1 RT [2]; specimen 32,R
same,% inhibition,"HIV-1 RT [2]; specimen 32, V75I, F77L, F116Y, Q151M, M184V",26%
same,Phenotype,HIV-1 RT [2]; specimen 35,R
same,% inhibition,"HIV-1 RT [2]; specimen 35, F116Y, Q151M, T215Y, V35I, I135T",62%
same,Phenotype,HIV-1 RT [2]; specimen 36,S
same,% inhibition,"HIV-1 RT [2]; specimen 36, D67N, L210W, L214F, T215Y",95.6%
same,Phenotype,HIV-1 RT [2]; specimen 37,S
same,% inhibition,"HIV-1 RT [2]; specimen 37, A62V, K70R, L74V, K103N, T215F",92.6%
same,Phenotype,HIV-1 RT [2]; specimen 38,S
same,Phenotype,HIV-1 RT [2]; specimen 39,S
same,% inhibition,"HIV-1 RT [2]; specimen 39, M41L, M184V, L214F, T215Y",89.1%
same,Phenotype,HIV-1 RT [2]; specimen 44,S
same,Phenotype,"HIV-1 RT [2]; specimens 1-11, WT",S
same,% inhibition,"HIV-1 RT [2]; specimens 1-11, recent seroconverters, WT",93-100%
same,Phenotype,"HIV-1 RT [2]; specimens 17, 18",R
same,Phenotype,HIV-1 RT [2]; specimens 19-21,R
same,% inhibition,"HIV-1 RT [2]; specimens 19-21, A62V, V75I, F77L, F116Y, Q151M",4-16%
same,Phenotype,HIV-1 RT [2]; specimens 22-25,R
same,% inhibition,"HIV-1 RT [2]; specimens 22-25, A62V, S68G, V75I, F77L, F116Y, Q151M",0%
same,Phenotype,HIV-1 RT [2]; specimens 27-28,R
same,Phenotype,"HIV-1 RT [2]; specimens 33, 34",R
same,Phenotype,HIV-1 RT [2]; specimens 40-43,S
same,% inhibition,"HIV-1 RT [2]; specimens 40-43, T215Y, T69S-insertions EA/SS/SG",87-97%
same,IC50 compared to reference WT HIV-1 isolates,"HIV-1 RT [2]; plasma specimen no. 25 (A62V, S68G, V75I, F77L, F116Y, Q151M)",44 fold
same,IC50,HIV-1 RT [2]; [5],400 nM
same,IC90,HIV-1 RT [2]; [5],1000 nM
same,% inhibition (SEM),"HIV-1 RT [1]; HIV-1LAI, WT",99.9 (±0.02) %
same,% inhibition (SEM),"HIV-1 RT [1]; HIV-1M184Vpitt, M184V",91.1 (±3.3) %
same,% inhibition (SEM),"HIV-1 RT [1]; HIV-1R598, D67N, V106A, L210W, L214F, T215Y",97.8 (±2.2) %
same,% inhibition (SEM),"HIV-1 RT [1]; HIV-1RTMC/MT-2, D67N, K70R, T215F, K219Q",91.5 (±8.5) %
same,% inhibition (SEM),"HIV-1 RT [1]; HIV-1RTMDRI/MT-2, M41L, L74V, V106A, T215Y",94.6 (±5.4) %
same,% inhibition (SEM),"HIV-1 RT [1]; HIV-1RTMF/MT-2, T215Y",96 (±4) %
same,% inhibition (SEM),"HIV-1 RT [1]; HIV-1SUM8, Q151M",26.6 (±6.1) %
same,inhibition of RT activity,HIV-1 RT [1]; HIV-1SUM8,50%
same,% inhibition (SEM),"HIV-1 RT [1]; HIV-1SUM9, WT",95.8 (±1.4) %
same,% inhibition (SEM),"HIV-1 RT [1]; HIV-1SUM12, F77L, F116V, Q151M",13.1 (±5.5) %
same,inhibition of RT activity,HIV-1 RT [1]; HIV-1SUM12 and HIV-1SUM13,< 15%
same,% inhibition (SEM),"HIV-1 RT [1]; HIV-1SUM13, A62V, V75I, F77L, F116Y, Q151M",12.9 (±2.8) %
same,% inhibition (SEM),"HIV-1 RT [1]; HIV-1xxBRUpitt, WT",93.5 (±6.5) %
same,inhibition of RT activity,HIV-1 RT [1]; WT HIV-1SUM9,> 85%
same,inhibition of activity,HIV-1 RT [1]; WT RT (HIV-1SUM9) alone,91%
same,inhibition of activity,HIV-1 RT [1]; mixture containing 10% MNR HIV-1SUM13 in WT HIV-1SUM9,17%
same,inhibition of activity,HIV-1 RT [1]; mixture containing 30% or more of MNR HIV-1,No inhibition
same,reduction of the level of DNA products,"HIV-1 RT [1]; 1 μM AZT-triphosphate, MNR strains",≤ 30%
same,reduction of the amount of DNA products,"HIV-1 RT [1]; 1 μM AZT-triphosphate, wild-type and classical reverse transcriptase mutant strains",≥ 90%
same,IC50,HIV-1 RT [1]; MNR HIV-1SUM8 (Q151M),2500 nM
same,IC90,HIV-1 RT [1]; MNR HIV-1SUM8 (Q151M),4500 nM
same,fold resistance (IC90) as compared to the mean IC values of WT HIV-1,HIV-1 RT [1]; MNR HIV-1SUM8 (Q151M),(4.7) fold
same,IC50,HIV-1 RT [1]; [3],11000 nM
same,IC90,HIV-1 RT [1]; [3],18000 nM
same,fold resistance (IC90) as compared to the mean IC values of WT HIV-1,HIV-1 RT [1]; [3],(18.6) fold
same,IC50,HIV-1 RT [1]; [4],18000 nM
same,IC90,HIV-1 RT [1]; [4],45000 nM
same,fold resistance (IC90) as compared to the mean IC values of WT HIV-1,HIV-1 RT [1]; [4],(46.6) fold
same,IC50,HIV-1 RT [1]; WT HIV-1LAI,500 nM
same,IC90,HIV-1 RT [1]; WT HIV-1LAI,900 nM
same,IC50,HIV-1 RT [1]; WT HIV-1SUM9,500 nM
same,IC90,HIV-1 RT [1]; WT HIV-1SUM9,1000 nM
same,IC50,HIV-1 RT [1]; [6],500 nM
same,IC90,HIV-1 RT [1]; [6],1000 nM
same,IC50,HIV-1 RT [1]; [7],500 nM
same,IC90,HIV-1 RT [1]; [7],1000 nM
